Like-named read-outs stand apart in the source and are kept apart here.
How the values were obtained:
Format in all cases: cell-based
[1] = system: MDA-MB-231 cells; assay: MDA-MB-231 cell proliferation assay (Cell-Titer-Glo, 120 hr); details: for EC50: read-out: MDA-MB 231 Cell Prolif. 120 hr EC50; for MDA-MB 231 Cell Prolif. 120 hr YMin (%): minimal percent of DMSO control observed
Procedure, shortened: (§1)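 Growth inhibition was read as CellTiter-Glo luminescence after 120 h at 37 °C in RPMI/10% FBS, with 400 MKN45 or 800 MDA-MB-231 cells seeded per well. Compounds were tested in 10-point half-log series starting at 1 or 10 uM (0.1% DMSO), in triplicate for MKN45 and duplicate for MDA-MB-231. EC50 values are four-parameter fits to %DMSO control, and Ymin-obs is the minimal observed %DMSO.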

[2] = target: T1, WEE1 (Homo sapiens, UniProt P30291+Q96SW2); assay: WEE1-ePL degradation assay (293T-LentiX, InCELL Hunter luminescence, 4 hr); details: for DC50: LentiX-HEK293T cells expressing WEE1-ePL, 4 hr incubation, read-out: 293T-LentiX WEE1-ePL Degradation 4 hr EC50; for 293T-LentiX WEE1-ePL Degradation 4 hr YMin (%): lower limit of fit, % of DMSO control signal remaining
T1 construct: C-terminal ePL-tagged (DiscoverX, Fremont, CA) full-length WEE1 expression construct; expressed in transfected cells; host or cells: LentiX-HEK293T (Invitrogen), lentivirally transduced; the cells also over-express GSPT1-GN
Procedure, shortened: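 EC50 comes from a four-parameter logistic fit of ePL luminescence (InCELL Hunter), with DMSO control defining Ymax. Compounds ran as 10-point 3-fold dilutions from 1 or 10 µM for 4 h at 37 °C. Cells were HEK293T-LentiX with ePL-tagged full-length WEE1 and over-expressed Cereblon-resistant GSPT1-GN.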

[3] = system: MKN45 cells; assay: MKN45 cell proliferation assay (Cell-Titer-Glo, 120 hr); details: for EC50: Homo sapiens, MKN-45, 120 h, read-out: MKN45 Cell Prolif. 120 hr EC50; for MKN45 Cell Prolif. 120 hr YMin (%): minimal percent of DMSO control observed
Procedure, shortened: as §1

[4] = Homo sapiens, MDA-MB-231, 120 h

T1 sequence (P30291 whole entry): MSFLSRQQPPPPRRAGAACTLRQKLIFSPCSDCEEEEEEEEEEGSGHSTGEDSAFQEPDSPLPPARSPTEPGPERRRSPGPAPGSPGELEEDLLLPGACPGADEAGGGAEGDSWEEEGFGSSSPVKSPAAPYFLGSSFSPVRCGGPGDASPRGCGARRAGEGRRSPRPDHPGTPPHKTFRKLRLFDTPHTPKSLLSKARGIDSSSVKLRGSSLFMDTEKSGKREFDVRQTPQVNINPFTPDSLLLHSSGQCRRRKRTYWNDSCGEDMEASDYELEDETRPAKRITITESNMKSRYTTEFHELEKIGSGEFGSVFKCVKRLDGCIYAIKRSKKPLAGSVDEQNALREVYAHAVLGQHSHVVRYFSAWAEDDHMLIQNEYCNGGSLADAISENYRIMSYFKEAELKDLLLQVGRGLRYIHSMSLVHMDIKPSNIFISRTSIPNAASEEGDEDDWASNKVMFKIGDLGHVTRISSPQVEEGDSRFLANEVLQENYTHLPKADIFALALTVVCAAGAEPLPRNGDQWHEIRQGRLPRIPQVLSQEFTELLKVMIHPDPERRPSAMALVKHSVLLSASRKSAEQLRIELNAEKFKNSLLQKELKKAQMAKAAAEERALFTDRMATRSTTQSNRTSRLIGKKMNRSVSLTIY
T1 sequence (Q96SW2 whole entry): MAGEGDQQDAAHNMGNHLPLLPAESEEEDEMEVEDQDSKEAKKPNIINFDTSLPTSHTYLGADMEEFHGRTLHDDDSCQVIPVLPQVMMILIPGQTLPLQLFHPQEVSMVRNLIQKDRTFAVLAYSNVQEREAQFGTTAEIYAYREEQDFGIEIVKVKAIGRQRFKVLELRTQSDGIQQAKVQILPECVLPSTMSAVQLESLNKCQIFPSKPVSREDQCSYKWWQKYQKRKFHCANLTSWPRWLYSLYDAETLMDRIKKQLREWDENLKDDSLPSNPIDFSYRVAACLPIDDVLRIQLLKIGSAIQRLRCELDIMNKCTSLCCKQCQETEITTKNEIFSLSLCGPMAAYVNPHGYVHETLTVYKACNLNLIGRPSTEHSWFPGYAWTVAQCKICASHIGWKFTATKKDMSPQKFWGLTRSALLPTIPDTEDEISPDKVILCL
T1 sequence (Q16531 whole entry partner): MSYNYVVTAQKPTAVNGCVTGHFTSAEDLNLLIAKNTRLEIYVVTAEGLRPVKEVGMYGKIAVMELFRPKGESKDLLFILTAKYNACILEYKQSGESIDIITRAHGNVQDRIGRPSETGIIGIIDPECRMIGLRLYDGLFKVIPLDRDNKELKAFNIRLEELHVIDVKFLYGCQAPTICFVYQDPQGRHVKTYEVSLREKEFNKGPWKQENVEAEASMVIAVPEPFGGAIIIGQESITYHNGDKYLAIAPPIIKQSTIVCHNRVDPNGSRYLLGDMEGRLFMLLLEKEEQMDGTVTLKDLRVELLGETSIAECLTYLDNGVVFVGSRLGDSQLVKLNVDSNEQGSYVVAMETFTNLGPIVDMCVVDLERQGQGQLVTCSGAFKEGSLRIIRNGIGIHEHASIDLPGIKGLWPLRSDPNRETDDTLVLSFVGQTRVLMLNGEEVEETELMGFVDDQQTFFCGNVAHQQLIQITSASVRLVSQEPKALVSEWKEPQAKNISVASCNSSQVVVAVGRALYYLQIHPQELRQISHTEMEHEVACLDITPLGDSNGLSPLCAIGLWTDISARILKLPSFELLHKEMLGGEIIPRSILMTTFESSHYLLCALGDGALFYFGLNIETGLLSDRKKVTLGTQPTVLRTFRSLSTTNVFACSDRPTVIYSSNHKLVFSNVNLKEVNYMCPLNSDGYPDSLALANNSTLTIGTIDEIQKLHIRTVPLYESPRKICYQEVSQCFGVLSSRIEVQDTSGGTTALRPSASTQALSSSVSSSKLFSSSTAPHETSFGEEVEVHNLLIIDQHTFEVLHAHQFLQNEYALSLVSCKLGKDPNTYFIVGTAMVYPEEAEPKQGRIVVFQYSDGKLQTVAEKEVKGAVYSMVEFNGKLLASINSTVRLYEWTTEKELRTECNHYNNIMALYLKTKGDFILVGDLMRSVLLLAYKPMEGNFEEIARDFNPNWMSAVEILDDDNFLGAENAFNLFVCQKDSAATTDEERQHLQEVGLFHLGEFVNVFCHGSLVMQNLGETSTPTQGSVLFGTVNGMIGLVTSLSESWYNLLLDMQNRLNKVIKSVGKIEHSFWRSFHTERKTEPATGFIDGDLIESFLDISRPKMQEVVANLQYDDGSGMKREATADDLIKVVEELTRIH

Row | EC50 [1, 4] [nM] | DC50 [2] [nM] | 293T-LentiX WEE1-ePL Degradation 4 hr YMin (%) [2] [%] | EC50 [3] [nM] | EC50 [1] [nM] | SMILES | MDA-MB 231 Cell Prolif. 120 hr YMin (%) [1] [%] | MKN45 Cell Prolif. 120 hr YMin (%) [3] [%]
1 | 2370 | 4 | 22.4 | 33 | – | O=C1CC[C@H](N2Cc3cc(O[C@H]4CN(Cc5cc(F)c6nc(C7CCOCC7)ccc6c5)C[C@@H]4c4ccccc4)ccc3C2=O)C(=O)N1 (relative stereo) [Example 145, (S)-3-(5-(((3R*,4S*)-1-((8-fluoro-2-(tetrahydro-2H-pyran-4-yl)quinolin-6-yl)methyl)-4-phenylpyrrolidin-3-yl)oxy)-1-oxoisoindolin-2-yl)piperidine-2,6-dione] | 74.7 | 16.3
2 | 443 | – | 93.2 | 308 | – | Cc1cc([C@H]2CN(Cc3cc(F)c4nc(C5CCOCC5)ccc4c3)C[C@@H]2Oc2ccc3c(c2)CN([C@H]2CCC(=O)NC2=O)C3=O)cc(C)n1 (relative stereo) [Example 147, (S)-3-(5-(((3R*,4S*)-4-(2,6-dimethylpyridin-4-yl)-1-((8-fluoro-2-(tetrahydro-2H-pyran-4-yl)quinolin-6-yl)methyl)pyrrolidin-3-yl)oxy)-1-oxoisoindolin-2-yl)piperidine-2,6-dione] | 79.7 | 92.2
3 | 429 | 7 | 24.4 | 23 | – | O=C1CC[C@H](N2Cc3cc(O[C@H]4CN(Cc5cc(F)c6nc(C7CCOCC7)ccc6c5)C[C@@H]4c4ccncc4)ccc3C2=O)C(=O)N1 (relative stereo) [Example 149, ((S)-3-(5-(((3R*,4S*)-1-((8-fluoro-2-(tetrahydro-2H-pyran-4-yl)quinolin-6-yl)methyl)-4-(pyridin-4-yl)pyrrolidin-3-yl)oxy)-1-oxoisoindolin-2-yl)piperidine-2,6-dione] | 68.7 | 11.0

The next lines start with the molecule.

Row | SMILES | EC50 [1, 4] [nM] | DC50 [2] [nM] | 293T-LentiX WEE1-ePL Degradation 4 hr YMin (%) [2] [%] | EC50 [3] [nM] | EC50 [1] [nM] | MDA-MB 231 Cell Prolif. 120 hr YMin (%) [1] [%] | MKN45 Cell Prolif. 120 hr YMin (%) [3] [%]
4 | O=C1CC[C@H](N2Cc3cc(O[C@H]4CN(Cc5cc(F)c6nc(C7CCOCC7)ccc6c5)C[C@@H]4C4CCCC4)ccc3C2=O)C(=O)N1 (relative stereo) [Example 146, (S)-3-(5-(((3R*,4S*)-4-Cyclopentyl-1-((8-fluoro-2-(tetrahydro-2H-pyran-4-yl)-quinolin-6-yl)methyl)pyrrolidin-3-yl)oxy)-1-oxoisoindolin-2-yl)piperidine-2,6-dione] | 585 | 1 | 24.2 | 3 | – | 50.7 | 10.8
5 | CC(C)C[C@H]1CN(Cc2cc(F)c3nc(C4CCOCC4)ccc3c2)C[C@@H]1Oc1ccc2c(c1)CN([C@H]1CCC(=O)NC1=O)C2=O (relative stereo) [Example 148, (3S)-3-(5-{[(3R*,4S*)-1-{[8-fluoro-2-(oxan-4-yl)quinolin-6-yl]methyl}-4-(2-methylpropyl)pyrrolidin-3-yl]oxy}-1-oxo-2,3-dihydro-1H-isoindol-2-yl)piperidine-2,6-dione] | 207 | 1 | 28.4 | 3 | – | 74.8 | 9.9
6 | CN1CC2(CC(c3ccc4cc(CN5CC[C@H](Oc6ccc7c(c6)CN([C@H]6CCC(=O)NC6=O)C7=O)C5)ccc4n3)CO2)C1 (single isomer, unassigned) [Example 1, (S)-3-(5-(((S)-1-((2-((R*)-2-methyl-5-oxa-2-azaspiro[3.4]octan-7-yl)quinolin-6-yl)methyl)pyrrolidin-3-yl)oxy)-1-oxoisoindolin-2-yl)piperidine-2,6-dione] | – | 368 | 30.7 | 75 | 1560 | 70.9 | 16.1
